Columns and labels:
[1] = Neuroprotective activity against 0.1 uM amyloid beta 42-induced toxicity in rat PC12 cells assessed as cell viability at 10 uM after 24 hrs by MTT assay; format: functional, PC-12
[2] = Neuroprotective activity against 0.1 uM amyloid beta 42-induced toxicity in rat PC12 cells assessed as cell viability after 24 hrs by MTT assay; format: functional, cell-based; conditions: PC-12, 24 h
[3] = Neuroprotective activity against 0.1 uM amyloid beta 42-induced toxicity in rat PC12 cells assessed as cell viability at 50 uM after 24 hrs by MTT assay; format: functional, PC-12

## COc1ccc(-c2cc(=O)c3c(O)cc(O)cc3o2)cc1-c1c(O)cc(O)c2c(=O)cc(-c3ccc(O)cc3)oc12 [BILOBETIN]
[1]
  Activity: 44.7%

## O=c1cc(-c2ccc(O)cc2)oc2cc(O)cc(O)c12 [APIGENIN]
[1]
  Activity: 41%

## O=c1cc(-c2ccc(O)c(-c3c(O)cc(O)c4c(=O)cc(-c5ccc(O)cc5)oc34)c2)oc2cc(O)cc(O)c12 [AMENTOFLAVONE]
[1]
  Activity: 37.6%

## COc1cc2oc(-c3ccc(O)cc3)cc(=O)c2c(O)c1Oc1ccc(-c2cc(=O)c3c(O)cc(O)cc3o2)cc1
[1]
  Activity: 65.7%

## COc1cc(O)c2c(=O)cc(-c3ccc(OC)c(-c4c(OC)cc(O)c5c(=O)cc(-c6ccc(O)cc6)oc45)c3)oc2c1
[1]
  Activity: 65.3%

## COc1cc(O)c2c(=O)cc(-c3ccc(O)c(-c4c(O)cc(O)c5c(=O)cc(-c6ccc(O)cc6)oc45)c3)oc2c1 [SEQUOIAFLAVONE]
[1]
  Activity: 39.3%

## COc1cc(O)c2c(=O)cc(-c3ccc(Oc4c(OC)cc5oc(-c6ccc(O)cc6)cc(=O)c5c4O)cc3)oc2c1
[1]
  Activity: 55.5%

## COc1ccc(-c2cc(=O)c3c(O)cc(OC)c(-c4cc(-c5cc(=O)c6c(O)cc(OC)cc6o5)ccc4O)c3o2)cc1 [HEVEAFLAVONE]
[1]
  Activity: 45.1%

## COc1ccc(-c2cc(=O)c3c(O)cc(O)cc3o2)cc1-c1c(OC)cc(O)c2c(=O)cc(-c3ccc(O)cc3)oc12
[1]
  Activity: 56.5%

## COc1ccc(-c2cc(=O)c3c(O)cc(O)c(-c4cc(-c5cc(=O)c6c(O)cc(O)cc6o5)ccc4O)c3o2)cc1 [PODOCARPUSFLAVONE A]
[1]
  Activity: 49.3%

## COc1cc(O)c2c(=O)cc(-c3ccc(OC)c(-c4c(O)cc(O)c5c(=O)cc(-c6ccc(O)cc6)oc45)c3)oc2c1 [GINKGETIN]
[1]
  Activity: 59.8%

## COc1ccc(-c2cc(=O)c3c(O)cc(OC)c(-c4c(OC)cc(O)c5c(=O)cc(-c6ccc(OC)cc6)oc45)c3o2)cc1
[1]
  Activity: 46.7%

## COc1ccc(-c2cc(=O)c3c(O)cc(OC)c(-c4cc(-c5cc(=O)c6c(O)cc(O)cc6o5)ccc4OC)c3o2)cc1 [KAYAFLAVONE]
[2]
  EC50: 5.29 µM
[1]
  Activity: 80.5%
[3]
  Activity: 100%

## O=C(O[C@@H]1Cc2c(O)cc(O)cc2O[C@@H]1c1cc(O)c(O)c(O)c1)c1cc(O)c(O)c(O)c1 [EPIGALOCATECHIN GALLATE]
[1]
  Activity: 49.5%

## COc1ccc(-c2cc(=O)c3c(O)cc(O)c(-c4cc(-c5cc(=O)c6c(O)cc(OC)cc6o5)ccc4OC)c3o2)cc1 [SCIADOPITISIN]
[2]
  EC50: 9.84 µM
[1]
  Activity: 83.1%
[3]
  Activity: 100%

## COc1cc(O)c2c(=O)cc(-c3ccc(O)c(-c4c(OC)cc(O)c5c(=O)cc(-c6ccc(O)cc6)oc45)c3)oc2c1
[1]
  Activity: 52.6%

## COc1ccc(-c2cc(=O)c3c(O)cc(O)c(-c4cc(-c5cc(=O)c6c(O)cc(O)cc6o5)ccc4OC)c3o2)cc1 [ISOGINKGETIN]
[2]
  EC50: 5.18 µM
[1]
  Activity: 83.1%

## COc1cc2oc(-c3ccc(O)cc3)cc(=O)c2c(O)c1-c1cc(-c2cc(=O)c3c(O)cc(O)cc3o2)ccc1O
[1]
  Activity: 38.5%

## O=c1cc(-c2ccc(Oc3c(O)cc4oc(-c5ccc(O)cc5)cc(=O)c4c3O)cc2)oc2cc(O)cc(O)c12 [HINOKIFLAVONE]
[1]
  Activity: 38.7%

## O=c1cc(-c2ccc(O)cc2)oc2c(-c3c(O)cc(O)c4c(=O)cc(-c5ccc(O)cc5)oc34)c(O)cc(O)c12 [CUPRESSUFLAVONE]
[1]
  Activity: 31.7%

## COc1ccc(-c2cc(=O)c3c(O)cc(OC)c(-c4cc(-c5cc(=O)c6c(O)cc(OC)cc6o5)ccc4OC)c3o2)cc1
[1]
  Activity: 49.9%

## COc1ccc(-c2cc(=O)c3c(O)cc(OC)c(-c4cc(-c5cc(=O)c6c(O)cc(O)cc6o5)ccc4O)c3o2)cc1 [7'',4'''-dimethylamentoflavone]
[1]
  Activity: 55.3%

## COc1ccc(-c2cc(=O)c3c(O)cc(O)c(-c4cc(-c5cc(=O)c6c(O)cc(OC)cc6o5)ccc4O)c3o2)cc1 [PODOCARPUSFLAVONE B]
[2]
  EC50: 10.8 µM
[1]
  Activity: 76.4%

## COc1cc(O)c2c(=O)cc(-c3ccc(O)cc3)oc2c1-c1cc(-c2cc(=O)c3c(O)cc(O)cc3o2)ccc1O [SOTETSUFLAVONE]
[1]
  Activity: 34.2%

Reference: ChEMBL document CHEMBL3588767, “Inhibitory activities of biflavonoids against amyloid-β peptide 42 cytotoxicity in PC-12 cells” (Bioorg Med Chem Lett, 2015)
